Consider three compounds from patent publication US20080255181A1, “Methods for treating podocyte-related disorders” (University of Heidelberg, priority 2006, published 2008).

Assay [1] deals with p90RSK. Kind of assay: Western blotting of p90RSK phosphorylation in podocytes. The assay is classed as cell-based, mouse. To be noted: 10 nmol/l, HCl. The text has this: (§1) A well established cell model of conditionally immortalized murine podocytes was used to determine the impact of calcimimetics on podocyte function. These immortalized podocyte cell lines were generated from the Inmortomouse® (Charles River, Wilmington, Mass., USA) carrying a temperature-sensitive T-antigen as transgene, under the control of an interferon-γ inducible promoter. […]
(§2) Protein extraction from cultured podocytes and SDS-PAGE were done as previously described (Weins et al., supra). Total and phosphorylated proteins were detected by Western blotting as described previously, using the following primary antibodies: Bad (dilution 1:1000), pBad (1:1000), Bax (1:1000), Bid (1:1000), Bcl-xl (1:500), CREB (1:4000), ERK1/2 (1:4000), pERK 1/2 (1:4000), pJNK (1:1000), p38MAPK (1:500), p90RSK (1:2000) (Cell Signaling Technology, Beverly, Mass., USA), Bcl-2 (1:500), Caveolin-1 (1:500), 3-Actin (1:10000) (Abcam, Cambridge, UK) CaSR 1:100 (Alpha Diagnostics, San Antonio, Tex., USA). […]
(§3) This CREB activation is able to mediate signals from numerous physiological stimuli, resulting in the regulation of a broad array of cellular responses, such as regulating of apoptosis associated genes. Therefore downstream pro-survival factors were analyzed. […]

In assay [2] the test system is ERK1/2. Kind of assay: Western blotting of ERK1/2 phosphorylation in podocytes. The class given is cell-based, mouse. The source says:
(§4) A well established cell model of conditionally immortalized murine podocytes was used to determine the impact of calcimimetics on podocyte function. These immortalized podocyte cell lines were generated from the Inmortomouse® (Charles River, Wilmington, Mass., USA) carrying a temperature-sensitive T-antigen as transgene, under the control of an interferon-γ inducible promoter. They were maintained cultured as previously described (Weins A et al. (2001) J Cell Biol 155: 393-404; Asanuma K. et al. (2005). J Clin Invest 115: 1188-1198. In brief, the cell line was maintained in RPMI 1640 (PAA Laboratories, Pasching, Austria) supplemented with 10% fetal bovine serum (PAA Laboratories, Pasching, Austria), 100 U/ml penicillin/streptomycin (Biochrom AG, Berlin, Germany) in humidified incubators with air-5% CO2. In order to induce differentiation, podocytes were grown on collagen type I (BD Bioscience, Bedford, Mass., USA) under permissive conditions at 33° C. with IFN-γ (10 U/ml) (Roche, Mannheim, Germany) or under non-permissive conditions at 37° C. without IFN-γ for at least 10 days.
Protein extraction from cultured podocytes and SDS-PAGE were done as previously described (Weins et al., supra). Total and phosphorylated proteins were detected by Western blotting as described previously, using the following primary antibodies: Bad (dilution 1:1000), pBad (1:1000), Bax (1:1000), Bid (1:1000), Bcl-xl (1:500), CREB (1:4000), ERK1/2 (1:4000), pERK 1/2 (1:4000), pJNK (1:1000), p38MAPK (1:500), p90RSK (1:2000) (Cell Signaling Technology, Beverly, Mass., USA), Bcl-2 (1:500), Caveolin-1 (1:500), 3-Actin (1:10000) (Abcam, Cambridge, UK) CaSR 1:100 (Alpha Diagnostics, San Antonio, Tex., USA). Western blot analysis was carried out according to standard protocols and visualized using enhanced chemiluminescence (ECL) immunoblot detection kits (Amersham Biosciences, Little Chalfont Buckinghamshire, UK).
It has been established previously that the activation of the CaSR induces a variety of intracellular signalling pathways such as the protein kinase C(PKC) and the MAP kinase pathways.
In addition, U0126 suppressed the phosphorylation of CREB (FIG. 10). Blockade of MEK1/2 and MAP kinases can not be bypassed via activation of other pathways such as PKC.

Assay [3] concerns CREB. The experiment in a line: Western blotting of CREB phosphorylation in podocytes. The class given is cell-based, mouse.
Description: as §4, §2, §3

Assay [4] has as its system intracellular proteins. Kind of assay: Activation of intracellular proteins in podocytes by calcimimetic. To be noted: 4 nmol/l. The class given is cell-based, mouse.
Description: as §1, §2

In assay [5] the test system is JNK. The experiment in a line: Western blotting of JNK activation in podocytes. The assay is classed as cell-based, mouse. Particulars: any time-point, HCl.
Description: as §1, §2
(In western blotting, separated proteins are transferred to a membrane and probed.)

Assay [6] has as its system BAD. Kind of assay: Western blotting of BAD phosphorylation in podocytes. The class given is cell-based, mouse. Particulars: 10 nmol/l.
Description: as §1, §2

Assay [7] relates to Bcl-xL. Kind of assay: Western blotting of Bcl-xL expression in podocytes. The assay is classed as cell-based, mouse. To be noted: time-dependent, HCl.
Description: as §1, §2

For assay [8], the system named is BID. Kind of assay: Western blotting of BID in podocytes. The assay is classed as cell-based, mouse. To be noted: Compound A exposure, HCl.
Description: as §1, §2

In assay [9] the test system is PAN-treated rats. Kind of assay: Animal model of PAN nephrosis (proteinuria). The assay is classed as in vivo, rat. The method, then: Puromycin aminonucleoside (PAN), which induces oxidant injury in cells via the xanthine oxidase pathway, has been used extensively as a model of podocyte injury. Podocyte injury in this model can be ameliorated by inhibitors of oxidants. Following PAN injection (15 mg/100 g body weight), injury in the rat podocytes is manifest by loss of interdigitating foot processes, detachment from the GBM, pseudocyst formation, reduction in anionic charge, attenuation of the underlying GBM, and associated leakiness of the glomerular filter resulting in proteinuria. The PAN model also progresses to a patchy glomerular scarring process [focal glomerulosclerosis (FSGS)]. FSGS in humans is commonly associated with progression to end-stage renal disease (ESRD) requiring renal replacement therapy. […] Podocytes were stained against WT-1, a specific marker for podocytes and counted under an immunofluorescence microscope.
Male Sprague-Dawley rats weighing approximately 100 g were administered intraperitoneal PAN (Sigma Company, St. Louis, Mo., USA) at a dose of 15 mg/100 g body weight, or additionally at the same time a single injection of Compound A (doses 2 mg/100 g body weight) 4 hours before, or an equivalent volume of 0.9% saline (0.2-0.4 ml/animal) (N=10-15 animals per group). […] Protein/Creatinin ratio was measured with ADVIA 2400, Bayer Diagnostics. […]

Assay [10] concerns podocytes. Kind of assay: FACS analysis of PAN-induced apoptosis of podocytes. The class given is cell-based, mouse. Particulars: PAN 30 μg/ml; for reduction of PAN induced increase in apoptosis rate: Compound A 10 mmol/l as printed, p<0.05; for apoptosis rate of cultured podocytes: baseline less than 20% in controls.
Description: as §4
All cells were treated as described, then washed and trypsinized. All washes and eluted cells were collected, pooled, and centrifuged. After washing cells with Annexin-binding buffer, cells were incubated with FITC-labelled Annexin-V (Molecular Probes) and propidium iodide (Molecular Probes) for 30 min. Annexin-V binds phosphatidylserine, which is translocated to the outer cell membrane during the initial stages of apoptosis. Propidium iodide was also applied to cells in order to distinguish necrosis from apoptosis. Cells were analyzed by flow cytometry (FACScalibur, Becton Dickinson). Apoptosis-associated fluorescence was measured using a log scale. Cells with high propidium iodide content were necrotic and were excluded from the analysis.
This example summarizes the results of FACS analyses. […] PAN (30 μg/ml) increased apoptosis rate of cultured podocytes to 44 and 78% correspondingly after 48 and 60 hrs of incubation, as compared to a baseline apoptosis rate of less than 20% in respective controls (FIG. 11). Addition of Compound A (10 mmol/l) reduced PAN induced increase in apoptosis rate in three independent experiments by 55 and 60% after 48 and 60 hrs respectively (both p<0.05).
Background: In flow cytometry, cells or beads pass a laser one at a time.

In assay [11] the test system is p38 MAPK. Kind of assay: Western blotting of p38 MAPK phosphorylation in podocytes. Particulars: 10 nmol/l, after 5 min and again after 30 and 60 min, HCl. The class given is cell-based, mouse.
Description: as §1, §2

The subject of assay [12] is podocytes genes. The experiment in a line: Microarray analysis of Compound A-dependent regulation of podocyte genes. The assay is classed as cell-based, mouse. To be noted: 10 nmol/l, 12 hrs.
Where [13] appears, read: inhibitor 10 mM as printed, Compound A 10 nmol.

The structures appear in SMILES notation. Entries after “also recorded” stand apart in the source; their conditions may differ.

Turning to `COc1cccc([C@@H](C)NCCCc2ccccc2Cl)c1.Cl` [Compound A, N-(3-[2-chlorophenyl]-propyl)-R-▪-methyl-3-methoxybenzylamine HCl], in assay [1], the p90RSK phosphorylation result is reported as “phosphorylated in a similar time pattern as ERK1/2; also recorded: induction”. Further, the “phosphorylation of ERK1/2” value in [2] (4 to 50 nmol/l, dose- and time-dependent, HCl) is “phosphorylation of ERK1/2 occurs; also recorded: time and dose dependent phosphorylation”. In addition, the “activation of ERK1/2” value in assay [2] (10 mol/l as printed, not further increased by higher concentrations) is listed as “strong activation”. Moreover, in assay [2] (Compound A incubation), the “time of first detectable ERK1/2 phosphorylation steps” value amounted to 2 min and the “time of maximal ERK1/2 phosphorylation” value was 10 min. The CREB phosphorylation result in [3] (10 nmol/l, HCl) is given as “leads to CREB phosphorylation; also recorded: induction”. In [4], the “activation of intracellular proteins” value is listed as “activation of intracellular proteins was demonstrated”. Besides, the JNK activation result in [5] is reported as “no activation; also recorded: not activated”. Besides, the “amount of non-phosphorylated BAD” value in assay [6] is listed as “decreases”. Besides, in assay [6] (time-dependent), the “amount of phosphorylated BAD” value is on record as “clearly increases”. Besides, the Bcl-xl expression result in assay [7] is reported as “induced in a time-dependent way; also recorded: increased expression”. Further, in assay [8], the BID entry is “not affected; also recorded: not influenced”. Besides, in assay [9] (male Sprague-Dawley rats, PAN 15 mg/100 g i.p., Compound A 2 mg/100 g body weight single injection, HCl), the “proteinuria in group receiving PAN and Compound A” value is “significant protection; also recorded: successfully impeded; also recorded: prevent the development of proteinuria”. The “proteinuria after a single dose, compared to untreated control rats receiving saline” value in [9] (rats, after day 6, intraperitoneal) is listed as “significantly induced”. Moreover, the “PAN induced apoptosis of podocytes (FIG. 11 legend)” value in assay [10] (Compound A 10 nmol/l, 48 h and 60 h) is recorded as “prevents”. Besides, the “reduction of PAN induced increase in apoptosis rate” value in [10] (48 hrs) is recorded as 55%. Moreover, the “reduction of PAN induced increase in apoptosis rate” value in assay [10] (60 hrs) is on record as 60%. In addition, in assay [11], the “p38 MAPK phosphorylation” value is “clear biphasic response pattern; also recorded: biphasic phosphorylation”. Besides, in [12], the “CaSR-regulated genes/number of genes analyzed: Adherens junction” value is reported as 11/62, the “CaSR-regulated genes/number of genes analyzed: Adhesion-extracellular matrix” value is listed as 14/84, the “CaSR-regulated genes/number of genes analyzed: Apoptosis” value is 9/72 and the “CaSR-regulated genes/number of genes analyzed: Cytokine receptor interactions” value is listed as 29/187. For the same compound, in assay [12], the “CaSR-regulated genes/number of genes analyzed: Focal Adhesions” value is reported as 30/174, the “CaSR-regulated genes/number of genes analyzed: MAPK signaling pathways” value was 30/193, the “CaSR-regulated genes/number of genes analyzed: Nfkb signaling” value was 8/79 and the “CaSR-regulated genes/number of genes analyzed: Regulation of actin cytoskeleton” value is 26/171. In assay [12], the “CaSR-regulated genes/number of genes analyzed: TGF beta signaling pathway” value is given as 9/62; the “CaSR-regulated genes/number of genes analyzed: Toll-like-receptor signaling” value is 10/69; the “CaSR-regulated genes/number of genes analyzed: Wnt signaling pathways” value is 15/116; the “mRNA expression of pro-apoptotic genes calpain 1, calpain small subunit 1, caspase 7 and caspase 8” value was “down-regulated”. Further, the “mRNA expression of pro-survival factor Bcl-2” value in assay [12] is listed as “up-regulated”. The “genes significantly regulated out of 15000 genes investigated” value in assay [12] (vs untreated cells) is on record as 10%.
`N#CC(=C(/N)Sc1ccccc1N)/C(C#N)=C(\N)Sc1ccccc1N` [Compound U0126, reference compound]: the “Compound A-induced phosphorylation of ERK1/2 in presence of MEK1/2 inhibitor” value in assay [2] (inhibitor 10 μM) is recorded as “abolish completely”. The “calcimimetic-induced phosphorylation of ERK 1/2 in presence of inhibitor (FIG. 10 legend)” value in [2] (setting [13]) is “strongly inhibits”. In [3] (inhibitor 10 μM), the “phosphorylation of CREB in presence of MEK1/2 inhibitor” value is “suppressed”. For the same compound, the “calcimimetic-induced phosphorylation of CREB in presence of inhibitor (FIG. 10 legend)” value in assay [3] (setting [13]) was “strongly inhibits”.
Regarding `CN(C)c1ncnc2c1ncn2[C@@H]1O[C@H](CO)[C@@H](N)[C@H]1O` [PAN, puromycin aminonucleoside, reference compound], the “apoptosis rate of cultured podocytes” value in [10] (48 hrs of incubation) is listed as 44%; in assay [10] (60 hrs of incubation), 78%.
